Measurements from patent US9161543B2, “Biocontrol through the use of chlorine-stabilizer blends” (NALCO COMPANY, priority 2011, dated 2015).

Assay: Blending of stabilizer and sodium hypochlorite: residual oxidant (TRO, FRO) and yield
Assay type: physicochemical
Conditions: Molar Ratio Cl2:N2 4:1
Description: A number of biocide formulations were prepared and were applied to samples of process water from a paper mill.

- FRO (free residual oxidant) (Caustic in Bleach = 0.5%): 1219 ppm
- FRO/TRO (Caustic in Bleach = 0.5%): 18.61%
- TRO (total residual oxidant) (Caustic in Bleach = 0.5%): 6550 ppm
- TRO Yield (Caustic in Bleach = 0.5%): 80.93%
- FRO (free residual oxidant) (Caustic in Bleach = 3.2%): 1450 ppm
- FRO/TRO (Caustic in Bleach = 3.2%): 23.02%
- TRO (total residual oxidant) (Caustic in Bleach = 3.2%): 6300 ppm
- TRO Yield (Caustic in Bleach = 3.2%): 77.84%
Structure (SMILES): NS(=O)(=O)O [sulfamic acid]
